Assay results: patent US4112105A, “Anti-inflammatory 3-(substituted-amino)-2,1-benzisothiazoles” (Sterling Drug Inc., priority 1977, dated 1978)
Where a name gives a salt, the structure may show the parent alone.

Key:
[1] = anti-inflammatory activity (test not given); settings: in vivo
Description: (§1) Anti-inflammatory activity was determined using (1) the inhibition of carrageenin-induced foot edema test essentially described by Van Arman et al., J. Pharmocol. Exptl. Therap. 150, 328 (1965) as a modification of the procedure of Winter et al., Proc. Soc. Exp. Biol. and Med. 111, 544 (1962) and (2) a modification of the inhibition of adjuvant-induced arthritis test described by Pearson, J. Chronic Diseases 16, 863 (1963) and Glenn et al., Am. J. Vet. Res. 26, 1180 (1965).

[2] = acute oral toxicity, standard toxicological test procedures; settings: in vivo; for LD50 at 168 h: acute oral, read-out: 7-day LD50
Description: Acute oral toxicity was determined for Examples 1E and (g) employing standard toxicological test procedures.

[3] = inhibition of carrageenin-induced foot edema test; assay type: in vivo; settings: for inhibition in vivo at 324 µmol/kg: 0.324 mMole/kg; for inhibition in vivo at 80 µmol/kg: 0.08 mMole/kg; for side effects (footnote e): 4 hours post medication
Description: as §1
Representative examples of the compounds of this invention have been tested in the carrageenin edema and adjuvant arthritis tests as described hereinabove and found to have anti-inflammatory activity. Test data, given as percent inhibition at a dose expressed in millimoles (mMole/kg) are presented hereinbelow. All test compounds were administered orally.
The data for a number of examples are presented in several separate groups each representing the test results wherein anti-inflammatory activity was measured at one or more dose levels against a single set of controls.

[4] = inhibition of adjuvant-induced arthritis test; assay type: in vivo; settings: for inhibition in vivo at 120 µmol/kg: 0.12 mMole/kg
Description: Anti-inflammatory activity was determined using (1) the inhibition of carrageenin-induced foot edema test essentially described by Van Arman et al., J. Pharmocol. Exptl. Therap. […] J. Vet.
All test compounds were administered orally.

CCN(CC)CCCC(C)Nc1snc2ccccc12 (stereo not drawn) [3-[4-(diethylamino)-1-methylbutylamino]-2,1-benzisothiazole]
anti-inflammatory activity (in words) [1]: useful anti-inflammatory activity

CCN(CC)CCCC(C)Nc1snc2ccccc12 (stereo not drawn) [(g), 3-[4-(diethylamino)-1-methylbutylamino]-2,1-benzisothiazole diphosphate, reference compound]
LD50 at 168 h [2]: 1730 mg/kg
inhibition in vivo at 20 µmol/kg ([3]; po, 0.02 mMole/kg): 0%
inhibition in vivo at 30 µmol/kg ([4]; po, 0.03 mMole/kg): 0%
inhibition in vivo at 60 µmol/kg ([4]; po, 0.06 mMole/kg): 1%
inhibition in vivo at 120 µmol/kg ([4]; po): 4%
inhibition in vivo at 240 µmol/kg ([4]; po, 0.24 mMole/kg): 0%

CCN(CC)CCCC(C)NC(=O)c1ccc(Cl)cc1[N+](=O)[O-] (stereo not drawn) [Example 1B, 4-chloro-N-[4-(diethylamino)-1-methylbutyl]-2-nitrobenzamide]
inhibition in vivo at 324 µmol/kg ([3]; po): 29%
inhibition in vivo at 324 µmol/kg ([4]; po, 0.324 mMole/kg): 16%

CCN(CC)CCCC(C)NC(=S)c1ccc(Cl)cc1[N+](=O)[O-].Cl (stereo not drawn) [Example 1C, 4-chloro-N-[4-(diethylamino)-1-methylbutyl]-2-nitrothiobenzamide hydrochloride]
inhibition in vivo at 324 µmol/kg ([3]; po): 38%
side effects (footnote b) ([4]; oral, 0.324 mMole/kg): loss of hair, yellow urine
inhibition in vivo at 324 µmol/kg ([4]; po, 0.324 mMole/kg): 60%

CCN(CC)CCCC(C)Nc1snc2cc(Cl)ccc12 (stereo not drawn) [Example 1D, 6-chloro-3-[4-(diethylamino)-1-methylbutylamino]-2,1-benzisothiazole]
toxicity (in words) [2]: low toxicity
anti-inflammatory activity in carrageenin edema assay (in words) ([3]; in vivo): high degree of anti-inflammatory activity
Carrageenin edema % inhibition ([3]; oral, 0.03 mMole/kg): 19%
inhibition in vivo at 90 µmol/kg ([3]; po, 0.09 mMole/kg): 14%
inhibition in vivo at 270 µmol/kg ([3]; po, 0.27 mMole/kg): 29%
anti-inflammatory activity in adjuvant arthritis assay (in words) ([4]; in vivo): high degree of anti-inflammatory activity
inhibition in vivo at 120 µmol/kg ([4]; po): 65%

CCN(CC)CCCC(C)Nc1snc2cc(Cl)ccc12 (stereo not drawn) [Example 1E, 6-chloro-3-[4-(diethylamino)-1-methylbutylamino]-2,1-benzisothiazole diphosphate]
LD50 at 168 h [2]: 1430 mg/kg
Carrageenin edema % inhibition ([3]; oral, 0.03 mMole/kg): 4%
Carrageenin edema % inhibition ([3]; oral, 0.09 mMole/kg): 25%
Carrageenin edema % inhibition ([3]; oral, 0.27 mMole/kg): 39%
side effects (footnote c) ([3]; oral, 0.64 mMole/kg): hypothermia
inhibition in vivo at 640 µmol/kg ([3]; po, 0.64 mMole/kg): 60%
toxicity in adjuvant arthritis test ([4]; oral, 0.24 mMole/kg): toxic

CCN(CC)CCCC(C)N(C)c1snc2cc(Cl)ccc12 (stereo not drawn) [Example 2C, 6-chloro-3-{[4-(diethylamino)-1-methylbutyl]methylamino}-2,1-benzisothiazole]
inhibition in vivo at 324 µmol/kg ([3]; po): 71%
toxicity in adjuvant arthritis test ([4]; oral, 0.324 mMole/kg): Toxic
inhibition in vivo at 72 µmol/kg ([4]; po, 0.072 mMole/kg): 0%

Clc1ccc2c(NCCN3CCCC3)snc2c1 [Example 3C, 6-chloro-3-{[2-(1-pyrrolidinyl)-ethyl]amino}-2,1-benzisothiazole]
inhibition in vivo at 30 µmol/kg ([3]; po, 0.03 mMole/kg): 15%
inhibition in vivo at 90 µmol/kg ([3]; po, 0.09 mMole/kg): 12%
inhibition in vivo at 270 µmol/kg ([3]; po, 0.27 mMole/kg): 32%
inhibition in vivo at 320 µmol/kg ([3]; po, 0.32 mMole/kg): 29%
inhibition in vivo at 640 µmol/kg ([3]; po, 0.64 mMole/kg): 52%
inhibition in vivo at 324 µmol/kg ([4]; po, 0.324 mMole/kg): 14%

CN1CCN(C(=S)c2ccc(Cl)cc2[N+](=O)[O-])CC1 [Example 4B, 1-(4-chloro-2-nitrothiobenzoyl)-4-methylpiperazine]
inhibition in vivo at 324 µmol/kg ([3]; po): 28%
inhibition in vivo at 324 µmol/kg ([4]; po, 0.324 mMole/kg): 0%

CN1CCN(c2snc3cc(Cl)ccc23)CC1 [Example 4C, 6-chloro-3-(4-methyl-1-piperazinyl)-2,1-benzisothiazole]
inhibition in vivo at 324 µmol/kg ([3]; po): 41%
inhibition in vivo at 324 µmol/kg ([4]; po, 0.324 mMole/kg): 10%

CN(C)CCNC(=S)c1ccc(Cl)cc1[N+](=O)[O-] [Example 5B, 4-chloro-N-[2-(dimethylamino)ethyl]-2-nitrothiobenzamide hydrochloride]
inhibition in vivo at 324 µmol/kg ([3]; po): 43%
inhibition in vivo at 324 µmol/kg ([4]; po, 0.324 mMole/kg): 2%

CN(C)CCNc1snc2cc(Cl)ccc12 [Example 5C]
inhibition in vivo at 30 µmol/kg ([3]; po, 0.03 mMole/kg): 19%
inhibition in vivo at 90 µmol/kg ([3]; po, 0.09 mMole/kg): 14%
inhibition in vivo at 270 µmol/kg ([3]; po, 0.27 mMole/kg): 29%
inhibition in vivo at 324 µmol/kg ([3]; po): 28%
inhibition in vivo at 324 µmol/kg ([4]; po, 0.324 mMole/kg): 0%

CN(C)CCCNC(=S)c1ccc(Cl)cc1[N+](=O)[O-] [Example 6B, 4-chloro-N-[3-(dimethylamino)propyl]-2-nitrothiobenzamide hydrochloride]
inhibition in vivo at 324 µmol/kg ([3]; po): 39%
inhibition in vivo at 324 µmol/kg ([4]; po, 0.324 mMole/kg): 8%

CN(C)CCCNc1snc2cc(Cl)ccc12 [Example 6C, 6-chloro-3-{[3-(dimethylamino)propyl]amino}-2,1-benzisothiazole dihydrochloride]
inhibition in vivo at 30 µmol/kg ([3]; po, 0.03 mMole/kg): 0%
inhibition in vivo at 90 µmol/kg ([3]; po, 0.09 mMole/kg): 24%
inhibition in vivo at 270 µmol/kg ([3]; po, 0.27 mMole/kg): 41%
inhibition in vivo at 324 µmol/kg ([3]; po): 35%
inhibition in vivo at 324 µmol/kg ([4]; po, 0.324 mMole/kg): 0%

CN(C)CCCCNC(=S)c1ccc(Cl)cc1[N+](=O)[O-] [Example 7B, 4-chloro-N-[4-(dimethylamino)butyl]-2-nitrothiobenzamide]
side effects (footnote d) ([3]; oral, 1.11 mMole/kg): salivation
inhibition in vivo at 1110 µmol/kg ([3]; po, 1.11 mMole/kg): 63%
inhibition in vivo at 800 µmol/kg ([4]; po, 0.80 mMole/kg): 15%

CN(C)CCCCNc1snc2cc(Cl)ccc12 [Example 7C, 6-chloro-3-{[4-(dimethylamino)butyl]amino}-2,1-benzisothiazole]
inhibition in vivo at 30 µmol/kg ([3]; po, 0.03 mMole/kg): 0%
inhibition in vivo at 90 µmol/kg ([3]; po, 0.09 mMole/kg): 9%
inhibition in vivo at 270 µmol/kg ([3]; po, 0.27 mMole/kg): 32%
inhibition in vivo at 324 µmol/kg ([4]; po, 0.324 mMole/kg): 25%

CN1CCN(c2snc3ccc(Cl)cc23)CC1 [Example 8, 5-chloro-3-(4-methyl-1-piperazinyl)-2,1-benzisothiazole]
inhibition in vivo at 80 µmol/kg ([3]; po): 15%
inhibition in vivo at 324 µmol/kg ([3]; po): 51%
inhibition in vivo at 324 µmol/kg ([4]; po, 0.324 mMole/kg): 0%

CN(C)CCNc1snc2ccc(Cl)cc12 [Example 9]
inhibition in vivo at 80 µmol/kg ([3]; po): 8%
inhibition in vivo at 320 µmol/kg ([3]; po, 0.32 mMole/kg): 0%
inhibition in vivo at 324 µmol/kg ([3]; po): 0%
inhibition in vivo at 640 µmol/kg ([3]; po, 0.64 mMole/kg): 23%

CCN(CC)CCCC(C)Nc1snc2ccc(Cl)cc12 (stereo not drawn) [Example 10]
side effects (footnote e) ([3]; oral, 0.32 mMole/kg): skeletal muscle relaxation, hypothermia and ptosis
side effects (footnote e) ([3]; oral, 0.64 mMole/kg): skeletal muscle relaxation, hypothermia and ptosis
inhibition in vivo at 80 µmol/kg ([3]; po): 0%
inhibition in vivo at 320 µmol/kg ([3]; po, 0.32 mMole/kg): 62%
inhibition in vivo at 324 µmol/kg ([3]; po): 15%
inhibition in vivo at 640 µmol/kg ([3]; po, 0.64 mMole/kg): 50%

CCN(CCO)CCCC(C)Nc1snc2cc(Cl)ccc12 (stereo not drawn) [Example 11, 6-chloro-3-<{4-[N-ethyl-N-(2-hydroxyethyl)amino]-1-methylbutyl}amino>-2,1-benzisothiazole 1,5-naphthalenedisulfonate]
inhibition in vivo at 80 µmol/kg ([3]; po): 18%
inhibition in vivo at 324 µmol/kg ([3]; po): 38%
inhibition in vivo at 240 µmol/kg ([4]; po, 0.24 mMole/kg): 54%
inhibition in vivo at 320 µmol/kg ([4]; po, 0.32 mMole/kg): 67%
inhibition in vivo at 324 µmol/kg ([4]; po, 0.324 mMole/kg): 36%
inhibition in vivo at 400 µmol/kg ([4]; po, 0.40 mMole/kg): 71%

CCN(CC)CC(O)CNc1snc2cc(Cl)ccc12 (stereo not drawn) [Example 12, 6-chloro-3-{[3-(diethylamino)-2-hydroxypropyl]amino}-2,1-benzisothiazole]
inhibition in vivo at 80 µmol/kg ([3]; po): 14%
inhibition in vivo at 324 µmol/kg ([3]; po): 35%
inhibition in vivo at 324 µmol/kg ([4]; po, 0.324 mMole/kg): 16%

Clc1ccc2c(NCCN3CCN(c4ccccc4)CC3)snc2c1 [Example 13, 6-chloro-3-{[2-(4-phenyl-1-piperazinyl)ethyl]amino}-2,1-benzisothiazole]
inhibition in vivo at 64 µmol/kg ([3]; po, 0.064 mMole/kg): 35%
inhibition in vivo at 80 µmol/kg ([3]; po): 11%
inhibition in vivo at 324 µmol/kg ([3]; po): 16%

CCN(CC)Cc1cc(Nc2snc3ccc(Cl)cc23)ccc1O [Example 14, 5-chloro-3-{[3-(diethylamino)methyl-4-hydroxyphenyl]amino}-2,1-benzisothiazole]
inhibition in vivo at 80 µmol/kg ([3]; po): 22%
inhibition in vivo at 324 µmol/kg ([3]; po): 72%
inhibition in vivo at 80 µmol/kg ([4]; po, 0.08 mMole/kg): 0%

CCN(CC)Cc1cc(Nc2snc3cc(Cl)ccc23)ccc1O [Example 15, 6-chloro-3-{[3-(diethylamino)methyl-4-hydroxyphenyl]amino}-2,1-benzisothiazole]
inhibition in vivo at 320 µmol/kg ([3]; po, 0.32 mMole/kg): 30%
inhibition in vivo at 640 µmol/kg ([3]; po, 0.64 mMole/kg): 32%

CCN(CC)Cc1cc(Nc2snc3ccccc23)ccc1O [Example 16, 3-{[3-(diethylamino)methyl-4-hydroxyphenyl]amino}-2,1-benzisothiazole]
inhibition in vivo at 80 µmol/kg ([3]; po): 2%
inhibition in vivo at 324 µmol/kg ([3]; po): 55%
inhibition in vivo at 324 µmol/kg ([4]; po, 0.324 mMole/kg): 18%
